The structures appear in SMILES notation.

The first assay concerns the target T1, Alpha-1A adrenergic receptor (Homo sapiens) (UniProt P35348).
T1 sequence (whole entry): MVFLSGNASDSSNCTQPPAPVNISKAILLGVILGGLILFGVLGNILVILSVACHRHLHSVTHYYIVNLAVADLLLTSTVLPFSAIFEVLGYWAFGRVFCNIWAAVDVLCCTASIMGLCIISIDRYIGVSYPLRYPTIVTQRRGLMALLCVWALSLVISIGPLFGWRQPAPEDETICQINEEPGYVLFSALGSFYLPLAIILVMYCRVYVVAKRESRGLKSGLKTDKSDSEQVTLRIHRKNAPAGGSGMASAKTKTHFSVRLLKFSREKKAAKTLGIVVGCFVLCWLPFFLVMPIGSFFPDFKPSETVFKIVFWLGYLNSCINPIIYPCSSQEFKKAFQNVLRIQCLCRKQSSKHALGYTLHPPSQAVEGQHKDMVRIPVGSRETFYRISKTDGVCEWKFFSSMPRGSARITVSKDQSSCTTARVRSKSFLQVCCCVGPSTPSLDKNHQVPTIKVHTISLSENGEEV
The assay is described as follows: Inhibition of alpha 1A adrenergic receptor at 1 uM.
The compound `CS(=O)(=O)N1CCc2c(c(-c3ccc(C(F)(F)F)cc3)nn2CC(O)CN2CCC(N3C(=O)COc4ccccc43)CC2)C1` (stereo unspecified) returned an inhibition of 60%.
The same measure, in the same setting: the figure for `CS(=O)(=O)N1CCc2c(c(-c3ccc(C(F)(F)F)cc3)nn2CC(O)CN2CCC(N3C(=O)NCc4cc(Cl)ccc43)CC2)C1` (stereo unspecified) is 40%.
`CS(=O)(=O)N1CCc2c(c(-c3ccc(C(F)(F)F)cc3)nn2CCCN2CCC(N3C(=O)COc4ccccc43)CC2)C1` yielded an inhibition of 72%.
The compound `CS(=O)(=O)N1CCc2c(c(-c3ccc(C(F)(F)F)cc3)nn2CC(O)CN2CCC(N3C(=O)CCc4cc(Cl)ccc43)CC2)C1` (stereo unspecified) returned an inhibition of under 10%.

The next assay deals with Cathepsin S (Homo sapiens, UniProt P25774).
Chain of Cathepsin S (P25774 whole entry): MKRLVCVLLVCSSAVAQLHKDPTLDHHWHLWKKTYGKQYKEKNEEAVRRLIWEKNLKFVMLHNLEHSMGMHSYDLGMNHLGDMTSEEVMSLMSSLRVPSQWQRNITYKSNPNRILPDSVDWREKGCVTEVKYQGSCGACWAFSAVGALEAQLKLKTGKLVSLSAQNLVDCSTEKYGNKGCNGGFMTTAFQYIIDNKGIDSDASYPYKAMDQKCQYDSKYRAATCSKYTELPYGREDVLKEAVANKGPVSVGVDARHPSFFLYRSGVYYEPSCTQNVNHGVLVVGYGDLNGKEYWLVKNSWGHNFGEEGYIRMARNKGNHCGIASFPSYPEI
Description: Inhibition of cathepsin S
In turn, `CS(=O)(=O)N1CCc2c(c(-c3ccc(Br)cc3)nn2CC(O)CN2CCC(N3c4ccc(Cl)cc4CNS3(=O)=O)CC2)C1` (stereo unspecified) registered a 50% inhibitory concentration (IC50) of 75 nM.
Consider `CS(=O)(=O)N1CCc2c(c(-c3ccc(C(F)(F)F)cc3)nn2CC(O)CN2CCC(N3C(=O)COc4ccccc43)CC2)C1` (stereo unspecified), for which the half-maximal inhibitory concentration (IC50) amounted to 28 nM.
In turn, `CS(=O)(=O)N1CCc2c(c(-c3ccc(Br)cc3)nn2CC(O)CN2CCC(N3CCc4ccccc4C3)CC2)C1` (stereo unspecified) gave an IC50 of 1780 nM.
Regarding `CS(=O)(=O)N1CCc2c(c(-c3ccc(C(F)(F)F)cc3)nn2CC(O)CN2CCC(N3C(=O)OCc4ccccc43)CC2)C1` (stereo unspecified), 88 nM corresponded to half-maximal inhibition (IC50).
The compound `CS(=O)(=O)N1CCc2c(c(-c3ccc(C(F)(F)F)cc3)nn2CC(O)CN2CCN(c3ccnc4ccccc34)CC2)C1` (stereo unspecified) had a concentration for half-maximal inhibition (IC50) of 1700 nM.
The compound `CS(=O)(=O)N1CCc2c(c(-c3ccc(Br)cc3)nn2CCCN2CCC(N3C(=O)COc4ccccc43)CC2)C1` displayed an IC50 of 60 nM.
For `CS(=O)(=O)N1CCc2c(c(-c3ccc(Br)cc3)nn2CC(O)CN2CCC(N3CCCc4ccccc43)CC2)C1` (stereo unspecified), the IC50 was found to be 322 nM.

Broadly, the inhibition is the share of the control response that was lost under treatment. Read a low inhibition as a weak effect. As a reminder, the IC50 is the concentration at which inhibition is half-maximal. The low end stands for higher potency, the high end for lower potency.
